From patent publication US10232023B2, “Methods for treatment of and prophylaxis against inflammatory disorders” (THE UNIVERSITY OF UTAH RESEARCH FOUNDATION, priority 2013, dated 2019)

Key:
LPS-stimulated PMNs = assay: NET formation by LPS-stimulated adult human PMNs (live cell imaging, histone H3 release); format: cell-based; details: LPS 100 ng/mL; for NET formation by LPS-stimulated PMNs: healthy adult PMNs, peptide/protein pre-incubation 1 hour (1 nM where stated)
[1] = tested on: PMA-stimulated adult PMNs; assay: NET formation by PMA-stimulated adult human PMNs; format: cell-based; details: pre-incubation 1 nM, 1 hour; PMA 20 nM
[2] = tested on: Outbred Swiss-Webster mice, E. coli peritonitis; assay: Murine E. coli peritonitis: peritoneal fluid and membrane analysis; format: in vivo, mouse
Experimental: Outbred Swiss-Webster mice were injected intraperitoneally with 4.5×10^7 colony-forming units (cfu) of E. coli±nNIF, CRISPP, or scrambled control peptide (SCR) (10 mg/kg, IP injection) one hour prior to E. coli infection. At the 3 hour time point after infection, 3 mice were sacrificed and the peritoneal fluid and peritoneal tissue were collected and analyzed for leukocyte accumulation, bacteriology, and in vivo NET formation. […] See Fuchs et al., J Cell Biol, 2007, 176: 231-241. The number of E. coli cfu/mL of peritoneal fluid in CRISPP pretreated mice was also determined compared to SCR mice (see FIG. 17C).
Animals were treated with CRISPP (10 mg/kg), nNIF (10 mg/kg), or SCR (10 mg/kg) by i.p. injection 1 hour prior to infection (E. coli, 4.5×10^7 cfu/mouse, i.p. injection) or stimulation (LPS, 25 mg/kg, i.p. injection (SIGMA)). Control mice were injected with saline alone. The mice were sacrificed in a CO2 chamber 3 hours post-infection/stimulation with the peritoneal contents harvested and analyzed. Briefly, the skin of the abdomen was cut open in the midline after thorough disinfection and without injuring the muscle. The peritoneal cavity was lavaged with sterile saline solution ([…]) and analyzed for in vivo NET formation, bacteriology, and leukocyte accumulation. NETs in the peritoneal fluid were qualitatively and quantitatively analyzed using live cell imaging with confocal microscopy and histone release assays. NETs on the inner surface of the peritoneal membrane were assessed quantitatively using live cell imaging followed by standardized grid analysis of 5 randomly selected high power visual fields per tissue sample (IMAGE-J software, NIH). Peritoneal bacterial colony forming units (cfu) counts were quantified by permeabilizing all recovered leukocytes with 0.1% Triton-X 100 for 10 minutes and performing serial dilutions and bacterial cultures on 5% sheep blood agar plates (HARDY DIAGNOSTICS). After a 24-hour incubation, bacterial counts were determined. Total leukocyte counts in the peritoneal lavage were determined in Neubauer chambers using an optical microscope after dilution in Turk's solution (2% acetic acid). Differential leukocyte analysis was performed using a 60× oil immersion objective to assess morphology of cyto-centrifuged cells stained with May-Grunwald-Giemsa dye.

[3] = tested on: PMNs isolated from healthy adult donors; assay: PMN chemotaxis, modified Boyden Chamber assay; format: cell-based, human; details: 1 nM, one hour pre-incubation; IL-8 2 ng/mL
Experimental: Chemotaxis by PMNs isolated from healthy adult donors was assessed using a modified Boyden Chamber assay±a one hour pre-incubation […] (1 nM), or SCR (1 nM). Recombinant human IL-8 (2 ng/mL) was used as the chemoattractant. Chemotaxis through a 5 micron filter was determined by counting PMNs in 10 randomly selected high-power fields as previously described in Hill et al., Lancet, 1974, 2: 617-619. In separate experiments, […], or SCR (all at 1 nM) were evaluated for chemoattractant activity using the same system.

[4] = tested on: PMNs isolated from healthy adult donors; assay: PMN phagocytosis of E. coli BIOPARTICLES; format: cell-based, human; details: 1 nM, 60 minutes pre-incubation, 4 hours
Experimental: PMNs were isolated from blood of healthy adult donors and resuspended in M-199 at a concentration of 2×10^6 cells/mL. Leukocytes were pre-incubated for 60 minutes under standard conditions with cytochalasin B and […] (1 nM), or SCR (1 nM). Following pre-incubation, PMNs were incubated with 6×10^6 E. coli BIOPARTICLES (E-13231, MOLECULAR PROBES) on a rotator for 4 hours under standard conditions. The PMNs were then washed and resuspended in the starting volume in M-199 before being spun down onto glass coverslips and fixed with 2% paraformaldehyde for 10 minutes and permeabilized with 0.1% Triton-X-100 for 10 minutes. Leukocytes were stained with WGA 555 (INVITROGEN) and TO[…] (MOLECULAR PROBES) and randomly selected high power visual field images were captured using confocal microscopy. IMAGE-J software (NIH) was used to determine the percentage of PMNs that were positive for fluorescently labeled E. coli BIOPARTICLES detected at 488 nm.

[5] = tested on: LPS-stimulated human PMNs; assay: Reactive oxygen species generation, dihydrorhodamine assay; format: cell-based; details: 1 nM, 1 hour pre-incubation; LPS 100 ng/mL
Experimental: Human PMNs isolated from healthy adult whole blood were resuspended to a concentration of 2×10^6 cells/mL in M-199 media and pre-incubated±[…] (1 nM) or SCR (1 nM) peptide for 1 hour under standard conditions. The PMNs were then stimulated with LPS (100 ng/mL) for 1 hour, washed, and resuspended with a dihydrorhodamine (7.25 mM; D-632, MOLECULAR PROBES) and catalase (1000 Units/mL; C-40, SIGMA) mixture and incubated at 37° C. for 10 minutes. After incubation, samples were placed at 4° C. and analyzed for ROS-dependent fluorescence using a BECTON-DICKINSON FACSCAN device equipped with CELLQUEST software.

PMA-stimulated PMNs = assay: Nuclear decondensation (nuclear area) assay; format: cell-based, human; details: CRISPP 1 nM, SCR 1 nM, Sivelestat 200 nM; PMA 20 nM, 2 hours; vs PMA alone
Experimental: Using techniques modified from Papayannopoulos et al., J Cell Biol, 2010, 191: 677-691, nuclear area assays were used for PMA-stimulated PMNs as a surrogate for NET formation. PMNs were stimulated with PMA (20 nM) for 2 hours and then visualized via live cell imaging with a cell permeable DNA dye. Images from 5 randomly selected high power fields were captured and the nuclear area of all PMNs on each visual field was quantitated using IMAGEJ software. Nuclear areas were compared for PMNs stimulated with PMA with PMNs pre-incubated with CRISPP (1 nM), SCR (1 nM), or the NE inhibitor Sivelestat (200 nM). […] Next, immunocytochemical experiments designed to see whether CRISPP is taken up by human PMNs were performed. The CRISPP-F and SCR-F peptides and FLAG-tag specific primary antibodies were used to assess cellular location. […] CRISPP can inhibit nuclear chromatin decondensation, which is consistent with the selective inhibition of NET formation by CRISPP and nNIF. This process may involve inhibition of NE activity.
PMNs were isolated and resuspended to 2×10^6 cells/mL in M-199 media. […] 5 randomly selected high power visual fields per sample were captured via confocal microscopy and analyzed for nuclear area using the cell-permeable, fluorescent DNA dye SYTO Green. The nuclear pixel areas of >100 individual cells per high power field were determined using IMAGE-J software (NIH).

NET formation = NET formation inhibition (test not described); details: no test described
[6] = tested on: human PMNs stimulated with phorbol 12-myristate acetate (PMA); details: background statement; cited from earlier work
[7] = 10 mg/kg IP pretreatment, vs SCR control

For “neonatal NET-Inhibitory Factor (KAVLTIDEKGTEAAGAMFLEAIPMSIPPEVKFNKPFVFLMIEQNTKSPLFMGKVVNPTQK; listed as Homo sapiens) [nNIF]”, which “NET formation by LPS-stimulated PMNs” value (LPS-stimulated PMNs) is on record?
The value was “significantly inhibited NET formation”.

And the “NET formation by PMA-stimulated PMNs” value [1]?
The value was “significantly inhibited NET formation”.

And the “NET formation by histone H3 release assay of the peritoneal fluid” value [2, 7]?
Its value is “significant quantitative decrease”.

What about the “NET formation in the peritoneal fluid (live cell imaging)” value [2, 7] of the same molecule?
Its value is “qualitative decrease”.

What about the “Peritoneal membrane-associated NET formation” value ([2]; freshly resected peritoneal membrane, live cell imaging, standardized grid) of the same molecule?
The value was “qualitative and quantitative decrease”.

What about the PMN chemotaxis [3] of the same molecule?
The PMN chemotaxis was “did not significantly inhibit”.

And the PMN phagocytosis [4]?
Its PMN phagocytosis is “did not significantly inhibit”.

And the “Reactive oxygen species generation” value [5]?
The value was “did not significantly inhibit”.

Which “Nuclear area of PMA-stimulated PMNs” value (PMA-stimulated PMNs) does the source give for CC(C)(C)C(=O)Oc1ccc(S(=O)(=O)Nc2ccccc2C(=O)NCC(=O)O)cc1 [Sivelestat, reference compound] here?
The value was “significant decrease in nuclear area”.

With “A1ATm^358: cleavage fragment of full length A1AT (SEQ ID NO:3), an nNIF-related peptide (PMSIPPEVKFNKPFVFLMIEQNTKSPLFMGKVVNPTQK; homo sapiens)” as the molecule, how does the NET formation (NET formation) read?
Its NET formation is “inhibit NET formation”.

For alpha 1-antitrypsin [A1AT], which “NET formation by LPS-stimulated PMNs” value (LPS-stimulated PMNs) is on record?
The value was “failed to inhibit NET formation”.

What about the “NET formation by LPS-stimulated PMNs, recombinant AAT in nNIF-depleted cord blood plasma” value (LPS-stimulated PMNs; rAAT (1 nM) added to nNIF-depleted cord blood plasma, listed as recombinant full length A1AT) of the same molecule?
Its value is “did not inhibit NET formation”.

And the “NET formation in PMA-stimulated human PMNs” value [6]?
Its value is “does not inhibit NET formation”.

B1: recombinant serpin B1: serine protease inhibitor expressed as a cytoplasmic protein by human PMNs (protein, UniProt P30740 1-379, looked up)
Leukocyte elastase inhibitor: MEQLSSANTRFALDLFLALSENNPAGNIFISPFSISSAMAMVFLGTRGNTAAQLSKTFHFNTVEEVHSRFQSLNADINKRGASYILKLANRLYGEKTYNFLPEFLVSTQKTYGADLASVDFQHASEDARKTINQWVKGQTEGKIPELLASGMVDNMTKLVLVNAIYFKGNWKDKFMKEATTNAPFRLNKKDRKTVKMMYQKKKFAYGYIEDLKCRVLELPYQGEELSMVILLPDDIEDESTGLKKIEEQLTLEKLHEWTKPENLDFIEVNVSLPRFKLEESYTLNSDLARLGVQDLFNSSKADLSGMSGARDIFISKIVHKSFVEVNEEGTEAAAATAGIATFCMLMPEENFTADHPFLFFIRHNSSGSILFLGRFSSP
Which “NET formation in PMA-stimulated human PMNs” value [6] does the source give for B1 here?
Its value is “inhibits NET formation”.
